Measured values reported in patent US4804502A, “Vitamin D compounds” (priority 1988, dated 1989).
pEC50: −log10 of the molar value.

Legend:
[1] = test system: bone calcium mobilization; assay: Bone Calcium Mobilization in Rat (plasma Ca increase); type: in vivo; settings: intrajugular, 18 h
Procedure: Controls received carrier alone. Bone Ca resorption (BCR) was estimated by measuring the blood Ca increase in the treated rats. Blood was collected in heparinized tubes and centrifuged. The resulting plasma was measured for calcium concentration by atomic absorption spectroscopy. Since rats were fed a diet essentially devoid of Ca, plasma Ca increases reflected mobilization of Ca from bone, not intestinal Ca absorption.

[2] = target: T1, 1,25-(OH)2 D3 receptors (chick intestine) (Gallus gallus, UniProt O42392); assay: Competitive Binding to 1,25-(OH)2 D3 Intestine Receptors, chick; settings: a/b×100 from amounts displacing 50% of 1,25-(OH)2[3H]D3
T1 construct: receptor prepared from intestine of chick, rat and calf; from tissue; host or cells: chick proximal small-intestine mucosa, cytosol, 35% ammonium sulphate precipitate
T1 sequence (O42392 1-451): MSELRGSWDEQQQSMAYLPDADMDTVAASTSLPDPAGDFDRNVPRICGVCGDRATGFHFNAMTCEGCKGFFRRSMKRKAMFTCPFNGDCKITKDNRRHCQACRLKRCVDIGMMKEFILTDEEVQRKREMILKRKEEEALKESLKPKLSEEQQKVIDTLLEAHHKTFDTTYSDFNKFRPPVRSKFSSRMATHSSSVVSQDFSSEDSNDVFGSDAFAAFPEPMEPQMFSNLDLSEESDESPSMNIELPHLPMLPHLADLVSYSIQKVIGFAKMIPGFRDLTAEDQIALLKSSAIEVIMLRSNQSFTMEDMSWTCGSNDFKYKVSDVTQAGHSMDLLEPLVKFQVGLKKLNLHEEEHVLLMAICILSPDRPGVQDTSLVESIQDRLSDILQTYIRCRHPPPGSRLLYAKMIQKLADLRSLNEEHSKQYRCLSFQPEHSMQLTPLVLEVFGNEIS
Procedure: (§1) The ability of vitamin D3 metabolites to compete for 1,25-(OH)[^3 H]D3 receptor binding sites was evaluated with receptor prepared from intestine of chick, rat and calf. […] Mucosa was collected and washed three times with 10 volumes of cold KTED buffer. The washed mucosa was homogenized in KTED buffer (20% w/v) using a Polytron Pt20 tissue disruptor. Cytosol was prepared by centrifugation of the homogenized mucosa at 300,000×g for 1 hour. […] The ammonium sulphate treated cytosol was centrifuged at 20,000×g for 10 minutes. The supernatant was discarded and the pellet lyophilized and stored at […] Prior to binding assay the pellet was resuspended in cold binding assay buffer containing 150 mM KCl, 50 mM NaPO4, 1.5 mM EDTA and 5 mM dithiothreitol.

[3] = target: T2, 1,25-(OH)2 D3 receptors (calf intestine) (Bos taurus, UniProt Q28037); assay: Competitive Binding to 1,25-(OH)2 D3 Intestine Receptors, calf; settings: a/b×100 from amounts displacing 50% of 1,25-(OH)2[3H]D3
T2 construct: receptor prepared from intestine of chick, rat and calf; from tissue; host or cells: calf proximal small-intestine mucosa, cytosol, 35% ammonium sulphate precipitate
T2 sequence (Q28037 1-426): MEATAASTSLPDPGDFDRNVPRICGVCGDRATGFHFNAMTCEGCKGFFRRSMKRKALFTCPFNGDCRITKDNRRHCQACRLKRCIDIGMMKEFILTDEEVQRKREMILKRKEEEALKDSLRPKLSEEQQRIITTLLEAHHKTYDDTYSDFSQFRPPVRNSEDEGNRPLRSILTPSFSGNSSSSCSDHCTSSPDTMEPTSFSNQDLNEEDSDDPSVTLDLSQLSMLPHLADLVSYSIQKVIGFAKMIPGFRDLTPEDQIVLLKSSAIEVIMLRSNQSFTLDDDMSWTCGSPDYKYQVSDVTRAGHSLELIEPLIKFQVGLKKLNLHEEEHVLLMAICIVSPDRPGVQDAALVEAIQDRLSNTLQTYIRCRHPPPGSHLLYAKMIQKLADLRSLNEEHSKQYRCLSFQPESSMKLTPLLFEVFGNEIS
Procedure: as §1

[4] = test system: HL-60 promyelocytic leukemia cells; assay: Induction of differentiation of HL-60 cells (NBT reduction); type: cell-based, human; settings: 8 days; for pEC50: Homo sapiens, HL-60, 192 h, from dose response curves, read-out: ED50 (concentration which induced differentiation of 50% of the cells)
Procedure: Inhibition of Cell Proliferation and Induction of Cell Differentiation
Cultures of HL-60 promyelocytic leukemia cells were established in the absence (control) and presence of various concentrations of test compounds. After an 8-day incubation period, the cultures were evaluated for proliferation of tumor cells, cell viability, and cellular differentiation. Proliferation was assessed by directly enumerating the increased number of tumor cells resulting from cell division during incubation. Viability was assessed by dye exclusion technique to learn whether any of the compounds were lethal to the cultured HL-60 cells. Cellular differentiation was evaluated by determining the number of cells which had acquired the enzymes necessary to support a respiratory burst, a characteristic of mature macrophages and granulocytes.
Tissue culture medium used in these experiments was RPMI-1640 supplemented to 10% v/v with heat-inactivated fetal bovine serum and to an additional 1.6 mM with L-glutamine.
Test compounds were dissolved in sufficient ethanol to yield stock solutions of 1×10^-2 or 1×10^-3 molar. Reduced lighting was used when working with compounds and stock solutions were stored in the dark at -20° C. in an argon atmosphere. Compounds were diluted in tissue culture medium and added to flasks containing HL-60 cells to achieve the final concentration described in each test.
The HL-60 tumor cell line was originally derived from a patient with promyelocytic leukemia and was obtained from the American Type Culture Collection. The cells were maintained in liquid culture by serial passage twice weekly in tissue culture medium. […] In any test, three replicate flasks were incubated without compound (control) or in the presence of varying concentrations of test compound. Ethanol, used as the vehicle, was kept constant in all dilutions in each test and had no effect on cell proliferation, viability or cell differentiation at the concentrations used (≤0.1%). After 8 days of incubation at 37° in a humidified atmosphere of 5% CO2 in air, cultures were evaluated for tumor cell proliferation, viability and differentiation.
Quantitation of differentiated cells was done by the biochemical method of nitroblue tetrazolum (NBT) reduction. One million HL-60 cells were pooled from replicate cultures, centrifuged at 220×g for 10 minutes, and resuspended in 1 ml of Ca^++ -Mg^++ -deficient phosphate buffered saline prepared by supplementing Ca^++ -Mg^++ -free phosphate buffered saline (PBS) to 20% v/v with heat-inactivated fetal bovine serum). Nitroblue tetrazolium was dissolved at 0.5 mg per ml in Ca^++ -Mg^++ -free PBS with gentle heating and frequent mixing. A stock solution of 1 mg tetradecanoyl phorbol acetate (TPA) per ml in ethanol, stored at -20°, was diluted 100-fold with Ca^++ -Mg^++ -free PBS to prepare a working solution. The test was done by adding 1 ml of NBT solution and 0.02 ml of the working TPA solution to the HL-60 cells. After mixing, the tubes were incubated in a 37° water bath for 25 minutes then transferred to ice. Undifferentiated and differentiated cells present in any sample were determined microscopically by surveying a minimum of 300 cells per sample. Cells without pigmented granules (clear cells) were judged to be undifferentiated while those containing greater than 3 blue-black formazan granules were scored as differentiated. Generally, differentiated cells were intensely pigmented clearly indicating the enzymatic conversion of NBT to formazan. Results are expressed as the percentage of differentiated cells present in any sample as calculated according to the formula: [formula] The results are also expressed as the concentration of compound which induced differentiation of 50% of the cells (ED50).

| SMILES | % of 1,25-(OH)2 D3 Effect in Rat, bone calcium mobilization ([1]; 12.5 ng/rat) [%] | Competitive Binding to 1,25-(OH)2 D3 Receptors - % of 1,25-(OH)2 D3 Effect, chick intestine [2] [%] | Competitive Binding to 1,25-(OH)2 D3 Receptors - % of 1,25-(OH)2 D3 Effect, calf intestine [3] [%] | % Differentiated cells ([4]; 0.01 × 10^-8 M) [%] | % Differentiated cells ([4]; 0.1 × 10^-8 M) [%] | % Differentiated cells ([4]; 1 × 10^-8 M) [%] | % Differentiated cells ([4]; 10 × 10^-8 M) [%] | pEC50 [4] | % of 1,25-(OH)2 D3 Effect in Rat, bone calcium mobilization ([1]; 15.5 ng/rat) [%] |
| --- | --- | --- | --- | --- | --- | --- | --- | --- | --- |
| C=C1/C(=C\C=C2/CCC[C@]3(C)[C@@H]([C@H](C)CC#CC(O)(C(F)(F)F)C(F)(F)F)CC[C@@H]23)C[C@@H](O)C[C@@H]1O [Compound B] | 0 | 47 | 62 | 13 | 29 | 95 | 98 | 8.70 | – |
| C=C1/C(=C\C=C2/CCC[C@]3(C)[C@@H]([C@H](C)CC#CC(C)(C)O)CC[C@@H]23)C[C@@H](O)C[C@@H]1O [Compound A, 1α,25-dihydroxy-23-yne-cholecalciferol] | – | 60 | 47 | – | 15 | 54 | 98 | 8.05 | 15 |
